The source of these data is US7179645B2 (priority 2002, dated 2007).

Where two headings read alike, the source gives them in different places. Where a SMILES comes first, the peptide text is derived from it. [ ]: non-standard residue; d: D form. Nle = CCCC[C@H](N)C(=O)O; ava = not defined here

For one experiment, the system named is SJL/J (H-2s) mice. To be noted: mouse, in vivo; cited from earlier work.
In a further experiment the test system is SKOV3.A2. The settings on record: cited from earlier work.
Experiment [1] has as its system C3H/HeJ mice (H-2^k); antibodies against the PGCC(95–104) epitope peptide. The settings on record: mouse, in vivo.
The test system is the same in experiment [2]. To be noted: mouse, in vivo. The source holds these as a separate data set.
The next experiment deals with mice. The settings on record: mouse, in vivo; cited from earlier work.
Experiment [3] relates to orthopoxviruses, including variola. To be noted: cited from earlier work.

On to HCLGKWLGHPDKFVGI [PL139–154], for which, in the experiment on SJL/J (H-2s) mice, the “mice with severe clinical and histological EAE” value is 3 of 20. On to `CCCC[C@@H](C=O)NC(=O)[C@H](CC(C)C)NC(=O)[C@H](CC(C)C)NC(C)=O` [acetyl-Leu-Leu-norleucinal] (Ac-Leu-Leu-[Nle]-aldehyde), for which the “presentation of the CTL epitope Her-2/neu(369–377)” value with SKOV3.A2 was “inhibited”.

For “Ac-LRMK-ava-IAYLKQATAK-NH2 (Ac-LRMK[ava]IAYLKQATAK-NH2; reading uncertain; also: printed as Ac-LRMK-ava-IAYLKQATAK-NH2) [Ii-Key/PGCC]”, in experiment [1], the “Antibody induction (ELISA), Dilution^−1 1620” value turned out to be 0.071; the “Antibody induction (ELISA), Dilution^−1 4860” value is 0.024; the “antibody titers against PGCC epitope” value is given as “Significantly greater antibody titers”. For the same molecule, the “antibody titers against PGCC epitope” value in experiment [2] was “Significantly greater antibody titers”. Turning to MOG35–55, in the experiment with mice, the “encephalitogenic potential (specific T-cell responses, EAE)” value is “induced specific T-cell responses and EAE”.

On to `Nc1ccn(C[C@@H](CO)OCP(=O)(O)O)c(=O)n1` [Cidofivir], for which the activity against orthopoxviruses result in experiment [3] is “shows activity”.
